The text below walks through data of ChEMBL document CHEMBL1135260 (Bioorg Med Chem Lett, 2002).

For the assay, the target named is T1, Neuropeptide Y receptor type 5 (Homo sapiens, UniProt Q15761).
T1 sequence (Q15761 whole entry): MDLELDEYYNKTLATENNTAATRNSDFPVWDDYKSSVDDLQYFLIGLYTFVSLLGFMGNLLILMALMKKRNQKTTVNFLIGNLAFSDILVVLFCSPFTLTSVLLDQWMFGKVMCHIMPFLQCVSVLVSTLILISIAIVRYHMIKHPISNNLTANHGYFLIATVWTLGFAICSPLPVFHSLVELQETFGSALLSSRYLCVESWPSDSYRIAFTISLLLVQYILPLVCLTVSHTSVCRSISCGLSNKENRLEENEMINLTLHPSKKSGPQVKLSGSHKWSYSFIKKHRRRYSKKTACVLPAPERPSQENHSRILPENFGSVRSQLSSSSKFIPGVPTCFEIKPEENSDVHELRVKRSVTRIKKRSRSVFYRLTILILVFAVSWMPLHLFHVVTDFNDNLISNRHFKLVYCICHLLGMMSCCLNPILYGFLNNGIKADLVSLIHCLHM
The assay is described as follows: Concentration that inhibited 50% of binding of 125 I -PYY ligand to human Neuropeptide Y receptor type 5. Format: single protein.

The molecule `COc1ccc2c(c1)-c1nc(-c3ccccn3)[nH]c1CCC2` gave an IC50 of 0.11 µM.

`COc1ccc2c(c1)-c1nc(-c3ccccc3)[nH]c1CC2` came in with an IC50 of 0.052 µM.

Turning to `Cc1[nH]c(-c2ccccc2)nc1-c1cccnc1` [FR-79620], the concentration for half-maximal inhibition (IC50) was determined as 0.427 µM.

`Fc1ccc2c(c1)-c1nc(-c3cccnc3)[nH]c1CCC2` yielded a half-inhibitory concentration (IC50) of 0.0064 µM.

`c1ccc(-c2nc3c([nH]2)-c2ccccc2CCC3)nc1` came in with an IC50 of 0.11 µM.

With `c1ccc(-c2nc3c([nH]2)CCOc2ccccc2-3)cc1`, the IC50 came out at 6.1 µM.

`c1ccc2c(c1)CCCc1[nH]c(-c3c[nH]cn3)nc1-2` showed an IC50 of 0.57 µM.
